Assay results reported in PubChem BioAssay (NCI).
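Abbreviation: GI50, concentration required for 50% inhibition of growth. TGI marks complete inhibition of growth.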

Key:
Test in all cases: DTP human tumour cell line panel, 384-well format
A498 renal = test system: A498 renal
A549 NSCLC = test system: A549 NSCLC
BT-549 breast = test system: BT-549 breast
CCRF-CEM leukemia = test system: CCRF-CEM leukemia
COLO 205 colon = test system: COLO 205 colon
DU-145 prostate = test system: DU-145 prostate
EKVX NSCLC = test system: EKVX NSCLC
HCC-2998 colon = test system: HCC-2998 colon
HCT-116 colon = test system: HCT-116 colon
HCT-15 colon = test system: HCT-15 colon
HL-60(TB) leukemia = test system: HL-60(TB) leukemia
HOP-62 NSCLC = test system: HOP-62 NSCLC
HOP-92 NSCLC = test system: HOP-92 NSCLC
HT29 colon = test system: HT29 colon
IGROV1 ovarian = test system: IGROV1 ovarian
K-562 leukemia = test system: K-562 leukemia
KM12 colon = test system: KM12 colon
LOX IMVI melanoma = test system: LOX IMVI melanoma
M14 melanoma = test system: M14 melanoma
MALME-3M melanoma = test system: MALME-3M melanoma
MDA-MB-231 breast = test system: MDA-MB-231 breast
MDA-MB-435 melanoma = test system: MDA-MB-435 melanoma
MDA-MB-468 breast = test system: MDA-MB-468 breast
MOLT-4 leukemia = test system: MOLT-4 leukemia
NCI-H226 lung = test system: NCI-H226 lung
NCI-H23 lung = test system: NCI-H23 lung
NCI-H322M lung = test system: NCI-H322M lung
NCI-H460 NSCLC = test system: NCI-H460 NSCLC
NCI/ADR-RES ovarian = test system: NCI/ADR-RES ovarian
OVCAR-3 ovarian = test system: OVCAR-3 ovarian
OVCAR-4 ovarian = test system: OVCAR-4 ovarian
OVCAR-5 ovarian = test system: OVCAR-5 ovarian
OVCAR-8 ovarian = test system: OVCAR-8 ovarian
PC-3 prostate = test system: PC-3 prostate
RPMI-8226 leukemia = test system: RPMI-8226 leukemia
SF-268 CNS = test system: SF-268 CNS
SF-295 CNS = test system: SF-295 CNS
SF-539 CNS = test system: SF-539 CNS
SK-MEL-2 melanoma = test system: SK-MEL-2 melanoma
SK-MEL-28 melanoma = test system: SK-MEL-28 melanoma
SK-MEL-5 melanoma = test system: SK-MEL-5 melanoma
SK-OV-3 ovarian = test system: SK-OV-3 ovarian
SNB-75 CNS = test system: SNB-75 CNS
SR leukemia = test system: SR leukemia
SW-620 colon = test system: SW-620 colon
TK-10 renal = test system: TK-10 renal
UACC-62 melanoma = test system: UACC-62 melanoma

With Nc1nc(OCc2cc(Br)cs2)c2[nH]cnc2n1 the GI50 (A498 renal) was 30.3 µM, the TGI (A498 renal) was > 100 µM and the GI50 (A549 NSCLC) was 42.6 µM. The TGI (A549 NSCLC) was > 100 µM, the GI50 (BT-549 breast) was 21.8 µM and the TGI (BT-549 breast) was 53.5 µM. For the same compound, the GI50 (CCRF-CEM leukemia) was 19.4 µM, the TGI (CCRF-CEM leukemia) was 40.3 µM and the GI50 (COLO 205 colon) was 72.9 µM. The TGI (COLO 205 colon) was > 100 µM, the GI50 (DU-145 prostate) was 44.7 µM and the TGI (DU-145 prostate) was > 100 µM. The GI50 (EKVX NSCLC) was 39.9 µM, the TGI (EKVX NSCLC) was > 100 µM and the GI50 (HCC-2998 colon) was 66.7 µM. For the same compound, the TGI (HCC-2998 colon) was > 100 µM, the GI50 (HCT-116 colon) was 38.4 µM and the TGI (HCT-116 colon) was > 100 µM. The GI50 (HCT-15 colon) was 33.9 µM, the TGI (HCT-15 colon) was > 100 µM and the GI50 (HL-60(TB) leukemia) was 18 µM. For the same compound, the TGI (HL-60(TB) leukemia) was 35.8 µM, the GI50 (HOP-62 NSCLC) was 36.7 µM and the TGI (HOP-62 NSCLC) was 99.4 µM. The GI50 (HOP-92 NSCLC) was 40.8 µM, the TGI (HOP-92 NSCLC) was > 100 µM and the GI50 (HT29 colon) was 46 µM. For the same compound, the TGI (HT29 colon) was > 100 µM, the GI50 (IGROV1 ovarian) was 30.7 µM and the TGI (IGROV1 ovarian) was > 100 µM. For the same compound, the GI50 (K-562 leukemia) was 27.8 µM, the TGI (K-562 leukemia) was > 100 µM and the GI50 (KM12 colon) was 87.2 µM. The TGI (KM12 colon) was > 100 µM, the GI50 (LOX IMVI melanoma) was 22.5 µM and the TGI (LOX IMVI melanoma) was 47.8 µM. For the same compound, the GI50 (M14 melanoma) was 47.9 µM, the TGI (M14 melanoma) was > 100 µM and the GI50 (MALME-3M melanoma) was 55.1 µM. For the same compound, the TGI (MALME-3M melanoma) was > 100 µM, the GI50 (MDA-MB-231 breast) was 40.7 µM and the TGI (MDA-MB-231 breast) was > 100 µM. The GI50 (MDA-MB-435 melanoma) was 43.1 µM, the TGI (MDA-MB-435 melanoma) was > 100 µM and the GI50 (MDA-MB-468 breast) was 16.9 µM. It also gave a TGI (MDA-MB-468 breast) of 47.5 µM, a GI50 (MOLT-4 leukemia) of 17.3 µM and a TGI (MOLT-4 leukemia) of 37.5 µM. The GI50 (NCI-H226 lung) was 45.9 µM, the TGI (NCI-H226 lung) was 96.9 µM and the GI50 (NCI-H23 lung) was 42.4 µM. For the same compound, the TGI (NCI-H23 lung) was > 100 µM, the GI50 (NCI-H322M lung) was 30.7 µM and the TGI (NCI-H322M lung) was 80.3 µM. The GI50 (NCI-H460 NSCLC) was 40.3 µM, the TGI (NCI-H460 NSCLC) was > 100 µM and the GI50 (NCI/ADR-RES ovarian) was 53.7 µM. For the same compound, the TGI (NCI/ADR-RES ovarian) was > 100 µM, the GI50 (OVCAR-3 ovarian) was 61.8 µM and the TGI (OVCAR-3 ovarian) was > 100 µM. For the same compound, the GI50 (OVCAR-4 ovarian) was > 78.7 µM, the TGI (OVCAR-4 ovarian) was > 100 µM and the GI50 (OVCAR-5 ovarian) was > 95.3 µM. The TGI (OVCAR-5 ovarian) was > 100 µM, the GI50 (OVCAR-8 ovarian) was 45.9 µM and the TGI (OVCAR-8 ovarian) was > 100 µM. The GI50 (PC-3 prostate) was 74 µM, the TGI (PC-3 prostate) was > 100 µM and the GI50 (RPMI-8226 leukemia) was 20.4 µM. The TGI (RPMI-8226 leukemia) was 40.4 µM, the GI50 (SF-268 CNS) was 32.1 µM and the TGI (SF-268 CNS) was > 84.9 µM. The GI50 (SF-295 CNS) was 48.7 µM, the TGI (SF-295 CNS) was > 100 µM and the GI50 (SF-539 CNS) was 44.2 µM. The TGI (SF-539 CNS) was > 100 µM, the GI50 (SK-MEL-2 melanoma) was 35.5 µM and the TGI (SK-MEL-2 melanoma) was 73.6 µM. The GI50 (SK-MEL-28 melanoma) was > 100 µM, the TGI (SK-MEL-28 melanoma) was > 100 µM and the GI50 (SK-MEL-5 melanoma) was 40.9 µM. The TGI (SK-MEL-5 melanoma) was > 100 µM, the GI50 (SK-OV-3 ovarian) was 29.1 µM and the TGI (SK-OV-3 ovarian) was 74.7 µM. The GI50 (SNB-75 CNS) was 29.7 µM, the TGI (SNB-75 CNS) was 85.4 µM and the GI50 (SR leukemia) was 8.96 µM. The TGI (SR leukemia) was 25.2 µM, the GI50 (SW-620 colon) was 67.4 µM and the TGI (SW-620 colon) was > 100 µM. The GI50 (TK-10 renal) was 30.5 µM, the TGI (TK-10 renal) was > 100 µM and the GI50 (UACC-62 melanoma) was 31.2 µM. The TGI (UACC-62 melanoma) was > 100 µM.
